What is called inhibition is the change of the read-out against control, counted positive when it falls.

human telomerase, sequence (O14746 whole entry): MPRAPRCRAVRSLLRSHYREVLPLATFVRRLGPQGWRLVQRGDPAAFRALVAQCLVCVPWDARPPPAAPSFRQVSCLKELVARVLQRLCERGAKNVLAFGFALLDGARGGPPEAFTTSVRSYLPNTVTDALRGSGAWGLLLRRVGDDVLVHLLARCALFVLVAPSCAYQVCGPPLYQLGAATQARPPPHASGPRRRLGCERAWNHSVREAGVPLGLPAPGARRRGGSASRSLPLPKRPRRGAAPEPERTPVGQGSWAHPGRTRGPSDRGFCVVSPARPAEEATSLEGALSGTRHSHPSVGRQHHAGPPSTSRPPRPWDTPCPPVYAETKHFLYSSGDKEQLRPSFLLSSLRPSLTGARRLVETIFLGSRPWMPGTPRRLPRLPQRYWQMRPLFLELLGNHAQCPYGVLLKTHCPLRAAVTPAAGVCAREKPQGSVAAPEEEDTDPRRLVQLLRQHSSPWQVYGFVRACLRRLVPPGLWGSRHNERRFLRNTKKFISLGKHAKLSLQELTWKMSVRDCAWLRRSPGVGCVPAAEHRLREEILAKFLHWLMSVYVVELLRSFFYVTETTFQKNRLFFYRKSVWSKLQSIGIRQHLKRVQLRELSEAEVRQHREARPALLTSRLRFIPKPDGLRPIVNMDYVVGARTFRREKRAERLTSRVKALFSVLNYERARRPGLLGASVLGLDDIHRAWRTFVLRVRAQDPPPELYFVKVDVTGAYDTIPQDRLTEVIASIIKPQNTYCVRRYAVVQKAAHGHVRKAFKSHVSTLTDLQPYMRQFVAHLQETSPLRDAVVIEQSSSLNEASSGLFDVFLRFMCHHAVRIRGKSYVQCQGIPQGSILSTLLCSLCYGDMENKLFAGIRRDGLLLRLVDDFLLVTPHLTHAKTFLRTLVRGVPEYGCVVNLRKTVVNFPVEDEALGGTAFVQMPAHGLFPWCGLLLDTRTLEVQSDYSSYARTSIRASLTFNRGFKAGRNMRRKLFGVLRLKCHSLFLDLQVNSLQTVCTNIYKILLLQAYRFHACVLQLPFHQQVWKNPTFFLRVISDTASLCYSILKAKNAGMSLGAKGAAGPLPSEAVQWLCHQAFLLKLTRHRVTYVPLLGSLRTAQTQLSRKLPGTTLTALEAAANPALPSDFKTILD

One test addresses human telomerase (Homo sapiens, UniProt O14746). The test can be described thus: Telomerase inhibition, primer extension assay in HeLa cell extract. Format: biochemical.
Conditions: not given
On to “Copper(II)tetraaminophthalocyanine [Compound B14]”, for which the “telomerase inhibition in words” value is given as “active”.

Consider `C[n+]1ccc(-c2c3nc(c(-c4cc[n+](C)cc4)c4ccc([n-]4)c(-c4cc[n+](C)cc4)c4nc(c(-c5cc[n+](C)cc5)c5ccc2[n-]5)C=C4)C=C3)cc1.[Cl-].[Cl-].[Cl-].[Cl-].[Zn+2]` [TMPyP4 ZnII], for which the “telomerase inhibition in words” value was “better inhibitors”.

Take “5,10-di-(N-methyl-4-pyridyl)-15,20-di-(3-nitrophenyl)porphine chloride [Compound D20]”: the “telomerase inhibition in words” value is given as “good activity”.

Still in this test, the particulars now being: 25 µM.
As to `C[n+]1ccc(-c2c3nc(c(-c4cc[n+](C)cc4)c4ccc([n-]4)c(-c4cc[n+](C)cc4)c4nc(c(-c5cc[n+](C)cc5)c5ccc2[n-]5)C=C4)C=C3)cc1.[Cl-].[Cl-].[Cl-].[Cl-].[Zn+2]` [TMPyP4 ZnII], the “% Inhibition of telomerase” value came to 88%.

Still in this test, the particulars now being: 25 μM; Table 5.
Take “Ethylenediamine protoporphyrin-IX [Compound B19]”: the “% Inhibition of telomerase” value came out at 0%.

Still in this test, the particulars now being: 25 μM; Table 5; read-out: % Inhibition of telomerase.
Take `C[n+]1ccccc1-c1c2nc(c(-c3cccc[n+]3C)c3ccc([nH]3)c(-c3cccc[n+]3C)c3nc(c(-c4cccc[n+]4C)c4ccc1[nH]4)C=C3)C=C2` [Compound B8, Tetra(N-methyl-2-pyridyl)porphyrin chloride]: the inhibition at 25 µM amounted to 0%.

For `C[N+](C)(C)c1ccc(-c2c3nc(c(-c4ccc([N+](C)(C)C)cc4)c4ccc([nH]4)c(-c4ccc([N+](C)(C)C)cc4)c4nc(c(-c5ccc([N+](C)(C)C)cc5)c5ccc2[nH]5)C=C4)C=C3)cc1` [TAP (B23), tetra(N,N,N-trimethyl-4-aminophenyl)porphyrin chloride], the inhibition at 25 µM worked out at 6%.

Staying with this test, now noted: 25 μM; Table 6.
For “5,10-di-(N-methyl-3-quinolyl)-15,20-di-(N-methyl-3-pyridyl)porphine chloride [Compound D12]”, the “% Inhibition of telomerase” value stood at 80%.

Staying with this test, now noted: 25 μM; Table 7; read-out: % Inhibition of telomerase.
For the compound `C[n+]1cccc(-c2c3nc(c(-c4ccccc4)c4ccc([nH]4)c(-c4ccc[n+](C)c4)c4nc(c(-c5ccccc5)c5ccc2[nH]5)C=C4)C=C3)c1` [Compound B9, 5,15-Diphenyl-10,20-di(N-methyl-3-pyridyl)porphyrin chloride], the inhibition at 25 µM came out at 18%.

For `Cc1ccc(-c2c3nc(c(-c4ccc(C)cc4)c4ccc([nH]4)c(-c4cc[n+](C)cc4)c4nc(c(-c5ccc(C)cc5)c5ccc2[nH]5)C=C4)C=C3)cc1` [Compound D9, 5-(N-methyl-4-pyridyl)-10,15,20-(4-methylphenyl)porphine chloride], the inhibition at 25 µM worked out at 31%.

As to `C[n+]1cccc(-c2c3nc(c(-c4ccc[n+](C)c4)c4ccc([nH]4)c(-c4ccc[n+](C)c4)c4nc(c(-c5ccccc5)c5ccc2[nH]5)C=C4)C=C3)c1` [Compound B10, Tri(N-methyl-3-pyridyl)phenylporphyrin chloride], the inhibition at 25 µM turned out to be 42%.

With `C[n+]1ccc(-c2c3nc(c(-c4ccccc4)c4ccc([nH]4)c(-c4cc[n+](C)cc4)c4nc(c(-c5ccccc5)c5ccc2[nH]5)C=C4)C=C3)cc1` [Compound B4, 5,15-Diphenyl-10,20-di(N-methyl-4-pyridyl)porphyrin chloride], the inhibition at 25 µM came to 30%.

For the compound `C[n+]1ccc(-c2c3nc(c(-c4cc[n+](C)cc4)c4ccc([nH]4)c(-c4cc[n+](C)cc4)c4nc(c(-c5ccccc5)c5ccc2[nH]5)C=C4)C=C3)cc1` [Compound B6, Tri(N-methyl-4-pyridyl)phenylporphyrin chloride], the inhibition at 25 µM turned out to be 15%.

`C[n+]1ccc(-c2c3nc(c(-c4ccccc4)c4ccc([nH]4)c(-c4ccccc4)c4nc(c(-c5cc[n+](C)cc5)c5ccc2[nH]5)C=C4)C=C3)cc1` [Compound B5, 5,10-Diphenyl-15,20-di(N-methyl-4-pyridyl)porphyrin chloride]: the inhibition at 25 µM was determined as 20%.

`C[n+]1ccccc1-c1c2nc(c(-c3ccccc3)c3ccc([nH]3)c(-c3ccccc3)c3nc(c(-c4ccccc4)c4ccc1[nH]4)C=C3)C=C2` [Compound B26]: the inhibition at 25 µM was 0%.

In the case of `C[n+]1cccc(-c2c3nc(c(-c4ccccc4)c4ccc([nH]4)c(-c4ccccc4)c4nc(c(-c5ccccc5)c5ccc2[nH]5)C=C4)C=C3)c1` [Compound B25], the inhibition at 25 µM came to 35%.

Take `C[n+]1ccc(-c2c3nc(c(-c4ccccc4)c4ccc([nH]4)c(-c4ccccc4)c4nc(c(-c5ccccc5)c5ccc2[nH]5)C=C4)C=C3)cc1` [Compound B24]: the inhibition at 25 µM was 34%.

Still in this test, the particulars now being: 25 μM; Table 9; read-out: % Inhibition of telomerase.
As for `O=[N+]([O-])c1cc(-c2c3nc(cc4ccc([nH]4)c(-c4ccc(O)c([N+](=O)[O-])c4)c4nc(cc5ccc2[nH]5)C=C4)C=C3)ccc1O` [Compound D14], the inhibition at 25 µM was found to be 55%.

For `COc1ccc(-c2c3nc(c(-c4ccc(OC)c(O)c4)c4ccc([nH]4)c(-c4ccc(OC)c(O)c4)c4nc(c(-c5ccc(OC)c(O)c5)c5ccc2[nH]5)C=C4)C=C3)cc1O` [Compound D17, 5,10,15,20-tetra-(4-methoxy-3-hydroxyphenyl)porphine], the inhibition at 25 µM is 50%.

Staying with this test, now noted: 25 μM; Table 10.
As to “5,10-di-(N-methyl-4-pyridyl)-15,20-di-(3-nitrophenyl)porphine chloride [Compound D20]”, the “% Inhibition of telomerase” value is recorded as 70%.

Staying with this test, now noted: 25 μM; Table 13; read-out: % Inhibition of telomerase.
On to `Nc1cccc(-c2c3nc(c(-c4cccc(N)c4)c4ccc([nH]4)c(-c4cccc(N)c4)c4nc(c(-c5cccc(N)c5)c5ccc2[nH]5)C=C4)C=C3)c1` [Compound B2, Tetra-(3-aminophenyl)porphyrin], for which the inhibition at 25 µM was found to be 15%.

Take `C[n+]1ccc(-c2c3nc(c(-c4ccccc4)c4ccc([nH]4)c(-c4cc[n+](C)cc4)c4nc(c(-c5ccccc5)c5ccc2[nH]5)C=C4)C=C3)cc1` [Compound B4, 5,15-Diphenyl-10,20-di(N-methyl-4-pyridyl)porphyrin chloride]: the inhibition at 25 µM came to 47%.

Take `Nc1ccc(-c2c3nc(c(-c4ccc(N)cc4)c4ccc([nH]4)c(-c4ccc(N)cc4)c4nc(c(-c5ccc(N)cc5)c5ccc2[nH]5)C=C4)C=C3)cc1` [Compound B1, Tetra-(4-aminophenyl)porphyrin]: the inhibition at 25 µM was determined as 50%.

Take `C[N+](C)(C)c1ccc(-c2c3nc(c(-c4ccc([N+](C)(C)C)cc4)c4ccc([nH]4)c(-c4ccc([N+](C)(C)C)cc4)c4nc(c(-c5ccc([N+](C)(C)C)cc5)c5ccc2[nH]5)C=C4)C=C3)cc1` [TAP (B23), tetra(N,N,N-trimethyl-4-aminophenyl)porphyrin chloride]: the inhibition at 25 µM was determined as 18%.

The test is the same for the next values; noted with them: Table 15; concentration fixed at 25 μM; 25 µM.
Turning to `C=CC1=C(C)c2cc3[nH]c(cc4nc(cc5[nH]c(cc1n2)c(C)c5C=C)C(C)=C4CCC(=O)O)c(CCC(=O)O)c3C` [Compound H19], the “% Inhibition of telomerase” value is reported as 16%.

The test is the same for the next values; noted with them: Table 15; concentration fixed at 25 μM; read-out: % Inhibition of telomerase.
Consider `O=C(O)CCC1=C(CC(=O)O)c2cc3[nH]c(cc4nc(cc5[nH]c(cc1n2)c(CCC(=O)O)c5CC(=O)O)C(CC(=O)O)=C4CCC(=O)O)c(CCC(=O)O)c3CC(=O)O` [Compound H24], for which the inhibition at 25 µM amounted to 4%.

In the case of `COC(=O)CCC1=C(C)c2cc3[nH]c(cc4nc(cc5[nH]c(cc1n2)c(CCC(=O)OC)c5C)C(C)=C4C(C)=O)c(C)c3C(C)=O` [Compound H9], the inhibition at 25 µM is 14%.

On to `CCC1=C(C)c2cc3[nH]c(cc4nc(cc5[nH]c(cc1n2)c(C)c5CC)C(C)=C4CCC(=O)OC)c(CCC(=O)OC)c3C` [Compound H16], for which the inhibition at 25 µM is 0%.

With `C=CC1=C(C)c2cc3[nH]c(cc4nc(cc5[nH]c(cc1n2)c(C)c5C=C)C(C)=C4CCC(=O)O)c(CCC(=O)O)c3C` [Compound H18], the inhibition at 25 µM was 17%.

Turning to `COC(=O)CCC1=C(CC(=O)OC)c2cc3[nH]c(cc4nc(cc5[nH]c(cc1n2)c(CCC(=O)OC)c5CC(=O)OC)C(CC(=O)OC)=C4CCC(=O)OC)c(CCC(=O)OC)c3CC(=O)OC` [Compound H22], the inhibition at 25 µM was 19%.

For the compound `C=CC1=C(C)c2cc3[nH]c(cc4nc(cc5[nH]c(cc1n2)c(C)c5C=C)C(C)=C4CCCO)c(CCCO)c3C` [Compound H27], the inhibition at 25 µM amounted to 24%.

For `CCOC(=O)CCc1c(C)c2cc3nc(cc4[nH]c(cc5nc(cc1[nH]2)C(C)=C5CC)c(C)c4CC)C(C)=C3C(=O)OCC` [Compound H25], the inhibition at 25 µM was found to be 18%.

In the case of `CCC1=C(C)c2cc3[nH]c(cc4nc(cc5[nH]c(cc1n2)c(C)c5CC)C(C)=C4CCCO)c(CCCO)c3C` [Compound H26], the inhibition at 25 µM was found to be 23%.

`CCOC(=O)CCC1=C(C)c2cc3[nH]c(cc4nc(cc5[nH]c(cc1n2)c(CC)c5C)C(CC)=C4C)c(C)c3C` [Compound H28]: the inhibition at 25 µM turned out to be 0%.

For `CC1=C(C=O)c2cc3[nH]c(cc4nc(cc5[nH]c(cc1n2)c(CCC(=O)O)c5C)C(CCC(=O)O)=C4C)c(C=O)c3C` [Compound H31], the inhibition at 25 µM is -10%.

In the case of `CCC1=C(C)c2cc3[nH]c(cc4nc(cc5[nH]c(cc1n2)c(C)c5CC)C(C)=C4CCC(=O)O)c(CCC(=O)O)c3C` [Compound H15], the inhibition at 25 µM worked out at 6%.

For the compound `CC1=C(CCC(=O)O)c2cc3[nH]c(cc4nc(cc5[nH]c(cc1n2)c(C(C)O)c5C)C(C(C)O)=C4C)c(C)c3CCC(=O)O` (centres unmarked) [Compound H12], the inhibition at 25 µM is 18%.

Take `COC(=O)CCC1=C(C)c2cc3[nH]c(cc4nc(cc5[nH]c(cc1n2)c(CCC(=O)OC)c5C)C(C)=C4S(=O)(=O)O)c(C)c3S(=O)(=O)O` [Compound H8]: the inhibition at 25 µM is 24%.

On to `COC(=O)CCC1=C(C)c2cc3[nH]c(cc4nc(cc5[nH]c(cc1n2)c(CCC(=O)OC)c5C)C(C)=C4Br)c(C)c3Br` [Compound H10], for which the inhibition at 25 µM came to 0%.

Turning to `CC1=C(CCC(=O)O)c2cc3[nH]c(cc4nc(cc5[nH]c(cc1n2)c(C)c5CCC(=O)O)C(CCC(=O)O)=C4C)c(C)c3CCC(=O)O` [Compound H23], the inhibition at 25 µM was 5%.

As for `COC(=O)CCC1=C(C)c2cc3[nH]c(cc4nc(cc5[nH]c(cc1n2)c(CCC(=O)OC)c5C)C(C)=C4C(C)O)c(C)c3C(C)O` (centres unmarked) [Compound H11], the inhibition at 25 µM was found to be 20%.

With `CCC1=C(C)c2cc3[nH]c(cc4nc(cc5[nH]c(cc1n2)c(C)c5CC)C(C)=C4CC)c(CC)c3C` [Compound H2], the inhibition at 25 µM was found to be 0%.

For `CC(=O)C1=C(C)c2cc3[nH]c(cc4nc(cc5[nH]c(cc1n2)c(C)c5C(C)=O)C(C)=C4CCC(=O)O)c(C)c3CCC(=O)O` [Compound H29], the inhibition at 25 µM turned out to be 0%.

On to `CCC1=C(C)c2cc3[nH]c(cc4nc(cc5[nH]c(cc1n2)c(C)c5CC)C(C)=C4)c(C)c3CC(=O)OC` [Compound H32], for which the inhibition at 25 µM came to 0%.

Take `COC(=O)CCC1=C(C)c2cc3cc(C)c(cc4nc(cc5[nH]c(cc1n2)c(CCC(=O)OC)c5C)C(C)=C4)[nH]3` [Compound H7]: the inhibition at 25 µM was found to be 14%.

For `COC(=O)CCC1=C(C)c2cc3[nH]c(cc4nc(cc5[nH]c(cc1n2)c(CCC(=O)OC)c5C)C(C)=C4CCC(=O)OC)c(CCC(=O)OC)c3C` [Compound H21], the inhibition at 25 µM was 33%.

Regarding `COC(=O)CCC1=C(C)c2cc3[nH]c(cc4nc(cc5[nH]c(cc1n2)c(C)c5CCC(=O)OC)C(C)=C4C)c(C)c3C` [Compound H30], the inhibition at 25 µM was 23%.

(Values after patent publication US6087493A, “Porphyrin compounds as telomerase inhibitors” (Regents of the University of Texas System, priority 1998, dated 2000).)
